Experimental data reported in ChEMBL document CHEMBL5137025, “Tuberculosis Drug Discovery: Challenges and New Horizons” (J Med Chem, 2022).
Converted amounts (≈) assume the structure as drawn.

How the values were obtained:
[1] = tested on: Mycobacterium tuberculosis; experiment: Antibacterial activity against Mycobacterium tuberculosis assessed as reduction in resistance generation frequency; assay type: functional
[2] = tested on: Mycobacterium tuberculosis; experiment: Antibacterial activity against multidrug-resistant Mycobacterium tuberculosis clinical isolate assessed as inhibition of bacterial growth in presence of SMARt-420; assay type: functional
[3] = tested on: Mycobacterium tuberculosis; experiment: Antibacterial activity against Mycobacterium tuberculosis Erdman (TMCC 107) assessed as reduction in resistance generation frequency; assay type: functional
[4] = tested on: Mycobacterium tuberculosis; experiment: Antibacterial activity against Mycobacterium tuberculosis Erdman (TMCC 107) in Mtb infection C3HeB/FeJ mouse model assessed as reduction in resistance generation frequency administered for 8 weeks relative to control; assay type: functional; set-up: scale not given: the % may be the effect or the level left
[5] = tested on: Mycobacterium tuberculosis; experiment: Antibacterial activity against extensively drug-resistant Mycobacterium tuberculosis clinical isolate assessed as inhibition of bacterial growth in presence of SMARt-420; assay type: functional
[6] = tested on: Mycobacterium tuberculosis; experiment: Antibacterial activity against Ethionamide-resistant Mycobacterium tuberculosis Beijing strain in acute Mtb infection BALB/c mouse model assessed as reduction in log10 CFU in lungs at 50 mg/kg, po for 3 weeks in presence of Ethionamide; assay type: functional
[7] = tested on: Mycobacterium tuberculosis; experiment: microbe, parasite or virus in culture
[8] = tested on: Mycobacterium tuberculosis; experiment: microbe, parasite or virus in culture; remark: listed apart in the source
[9] = tested on: Mycobacterium tuberculosis; experiment: Antibacterial activity against EMB-resistant Mycobacterium tuberculosis assessed as inhibition of bacterial growth; assay type: functional

Cc1ccn(C(C)c2nnc(Nc3ccn(Cc4c(F)cccc4Cl)n3)s2)n1 (stereo not drawn)
Activity [1]: 4 10^-8No_unit

CCNC(=N)NC(=O)Nc1c(CC)cccc1CC
Activity [1]: >1.5 log10CFU

Cc1n[nH]c2ccc(NS(=O)(=O)CCCCF)cc12
Activity [1]: 6 10^-8No_unit

CCS(=O)(=O)N1N=Cc2ccc(Oc3ccc(C(F)(F)F)cc3/C=N/O)cc2B1O
MIC [2]: 0.15 µM | Activity [3]: 4 10^-7No_unit | Activity [4]: 0.04% | MIC [5]: 0.15 µM

O=C(CCC(F)(F)F)N1CCC2(CC1)CC(c1ccccc1)=NO2
Activity [6]: 4 log10CFU

CCc1cc(C(N)=S)ccn1 [ETHIONAMIDE]
MIC [7]: 48 µM (≈ 7.98 µg/mL) | MIC [8]: 48 µM (≈ 7.98 µg/mL)

NNC(=O)c1ccncc1 [ISONIAZID]
Activity [1]: 4 10^-5No_unit | Activity [4]: 29%

CC(C)=CCC/C(C)=C/CNCCNC1C2CC3CC(C2)CC1C3 (stereo not drawn) [SQ109]
MIC [9]: 2.4 µM (≈ 0.793 µg/mL)
